Measurements: US6462032B1, “Cyclic regimens utilizing indoline derivatives” (Wyeth, priority 1999, dated 2002)
Where “and” joins values, the source holds several entries; their conditions need not be identical. Equal values may be shown once.

Experiments:
[1] = test system: rat uterine decidualization; assay: Rat decidualization assay; conditions: ovariectomized rats, s.c.; for Estimated average EC50: average of dose-response curves; for EC50: uterine wet weight (decidual response), individual studies
T47D cells = assay: T47D cell proliferation assay (BrdU incorporation); type: cell-based; conditions: decrease in trimegestone induced BrdU incorporation, individual experiments
Procedure: 3. T47D Cell Proliferation Assay
The objective of this assay is the determination of progestational and antiprogestational potency by using a cell proliferation assay in T47D cells. A compound's effect on DNA synthesis in T47D cells is measured.
DMEM:F12(1:1) (GIBCO, BRL) supplemented with 10% (v/v) fetal bovine serum (not heat-inactivated), 100 U/ml penicillin, […], and 2 mM GlutaMax (GIBCO, BRL).
Minimum Essential Medium (MEM) (#51200-038GIBCO, BRL) phenol red-free supplemented with 0.5% charcoal stripped fetal bovine serum, 100 U/ml penicillin, […] streptomycin, and 2 mM GlutaMax (GIBCO, BRL). […]
At the end of BrdU labeling, the medium is removed and BrdU incorporation is measured using a cell proliferation ELISA kit (#RPN 250, Amersham Life Science) according to manufacturer's instructions. […] Then 25 μl of 1 M sulfuric acid is added to each well to stop color reaction and optical density is read in a plate reader at 450 nm within 5 min.
Square root-transformed data are used for analysis of variance and nonlinear dose response curve fitting for both agonist and antagonist modes. […] EC50 or IC50 values are calculated from the retransformed values.
Trimegestone and medroxyprogesterone acetate (MPA) are reference progestins and RU486 is the reference antiprogestin. All reference compounds are run in fill dose-response curves and the EC50 or IC50 values are calculated.

Structure (SMILES): CCC1C(=O)Nc2ccc(-c3cccc(Cl)c3)cc21 (stereo not shown) [Example 6, 5-(3Chloro-phenyl)-3-ethyl-1,3-dihydro-indol-2-one]
- melting point: 100 to 101 °C

Structure (SMILES): C#C[C@]1(O)CC[C@H]2[C@@H]3CCC4=CC(=O)CC[C@@H]4[C@H]3CC[C@@]21CC [Levonorgestrel, levonorgestrel]
- Estimated average EC50 [1]: 0.10 mg/kg. s.c.
- EC50 [1]: 0.08 mg/kg, s.c. and 0.12 mg/kg, s.c. and 0.09 mg/kg, s.c. (2×)

Structure (SMILES): C#C[C@]1(O)CC[C@H]2[C@@H]3CCC4=CC(=O)CC[C@@H]4[C@H]3C(=C)C[C@@]21CC [3-Ketodesogestrel, 3-ketodesogestrel]
- Estimated average EC50 [1]: 0.10 mg/kg. s.c.
- EC50 [1]: 0.10 mg/kg, s.c. and 0.06 mg/kg, s.c. and 0.11 mg/kg, s.c.

Structure (SMILES): O=C1CCC(c2cc(F)cc(Br)c2)CC12CNc1ccccc12 (stereo not shown) [Example 28, 5-(3-Bromo-5-fluorophenyl)spiro[cyclohexane-1,3-[3H]indol]-2(1′H)-one]
- melting point: 194 to 196 °C

Structure (SMILES): CC#C[C@]1(O)CC[C@H]2[C@@H]3CCC4=CC(=O)CCC4=C3[C@@H](c3ccc(N(C)C)cc3)C[C@@]21C [RU486]
- IC50 (T47D cells): 0.016 nM and 0.018 nM
